Data set [1] relates to rRVFVΔNSs::Katushka. As to the kind of experiment: microbe, parasite or virus in culture. It is filed as cell-based, Rift Valley fever virus. As to conditions: for EC50: read-out: EC50, inhibition of fluorescent cell foci.
Data set [2] can be described thus: physchem. As to conditions: 37 °C, pH 7.4, aqueous buffer, thermodynamic from solid.
For data set [3] the following is noted: human.
The nature of data set [4]: in vitro. Particulars: human, hepatocytes.
Data set [5] can be described thus: in vitro. As to conditions: both, human, plasma, pH 7.4.
Data set [6] in a line: physchem. Particulars: pH 7.4.
The conditions of data set [7]: human, microsomes, pH 7.4.
Data set [8] in a line: in vitro. Particulars: human, Caco-2, pH 7.4.
Data set [9] is described as follows: in vitro. As to conditions: human, microsomes, pH 7.4.
The test system of another data set is A549 cells. Particulars: cited from earlier work.
The conditions of data set [10]: mouse, microsomes, pH 7.4.
Data set [11] can be described thus: in vitro. As to conditions: mouse, microsomes, pH 7.4.
Data set [12] is described as follows: in vitro. Particulars: mouse, plasma, pH 7.4.
For data set [13] the following is noted: female, BALB/C, mouse, in vivo.
The test system of another data set is RVFV virions. Type of data set: cell-based, Rift Valley fever virus.
For data set [14] the following is noted: mouse, in vivo.
Data set [15] is described as follows: physchem. Particulars: plasma or biological fluid.
Another data set is described as follows: in vivo. As to conditions: female, BALB/C, mouse.
Data set [16] deals with rRVFVΔNSs::Katushka. As to the kind of experiment: microbe, parasite or virus in culture. It is filed as cell-based. Particulars: Rift Valley fever virus, A549, 16 h, read-out: EC50, inhibition of RVFV RNA expression (qPCR). Background: Real-time PCR tracks product formation cycle by cycle.
The test system of data set [17] is rRVFVΔNSs::Katushka. As to the kind of experiment: microbe, parasite or virus in culture. It is filed as cell-based, Rift Valley fever virus.
Data set [18] has as its system rRVFVΔNSs::Katushka. It is filed as cell-based, Rift Valley fever virus.
Where [19] appears, read: Rift Valley fever virus, A549, 16 h.

Each structure is given as a SMILES string. Values after ≈ are worked out from the molar mass of the structure shown. Where two headings read alike, the source gives them in different places. Where only a bound is given, the exact number is not on record here.

Regarding `CC(C)(C)C(=O)Nc1ccccc1C(=O)Nc1ccccc1C(=O)O` [17d], the “EC50, inhibition of fluorescent cell foci” value in the data set on rRVFVΔNSs::Katushka [1] was “out of range”.
For the compound `O=C(O)c1ccccc1NC(=O)c1ccccc1NC(=O)C1CCCCC1` [17e], the “EC50, inhibition of fluorescent cell foci” value in the data set with rRVFVΔNSs::Katushka [1] was “out of range”.
The EC50 is the concentration that produces a half-maximal response. As to `O=C(Nc1cc(Cl)ccc1C(=O)Nc1ccccc1C(=O)O)c1ccccc1F` [35f], the EC50 in the data set on rRVFVΔNSs::Katushka [1] (setting [19]) is 4.5 µM; in the data set on rRVFVΔNSs::Katushka [1], 4.6 µM.
In general, solubility refers to how much of the substance goes into solution per volume. What is called hepatocyte CLint is a measure of how fast metabolising enzymes remove a compound, apart from limits set by blood flow. Higher therefore signals faster metabolism. As usually defined, the fraction unbound is the share of the substance not bound to proteins or other matrix. Read a low fraction unbound as extensive binding. Broadly, the logD is the decadic logarithm of the distribution of all forms, ionised or not, between an organic phase and buffer at a given pH. High values mean a more lipophilic compound, low ones a more hydrophilic compound. Usually Papp A→B stands for the apparent permeability from the apical to the basolateral side of a cell layer. Read a high Papp A→B as fast passage. As usually defined, the Papp B→A is the apparent permeability from the basolateral to the apical side of a cell layer. Usually efflux ratio stands for a quotient of directional permeabilities that is used to spot active efflux. Usually microsomal CLint stands for the capacity of the preparation to metabolise the compound, expressed as a volume cleared per time. Low values mean slow turnover, high ones rapid turnover. Turning to `O=C(Nc1ccccc1C(=O)Nc1ccccc1C(=O)O)c1ccccc1` [Benzavir-1, 2-{[2-(benzoylamino)benzoyl]amino}-benzoic acid], the solubility in the data set “physchem [2]” was found to be 930 ± 110 µM (≈ 335 µg/mL). Besides, the “CLH, u (HHep)” value in data set [3] was 2.3 L/h. Besides, in the data set “in vitro [4]”, the intrinsic clearance (hepatocyte CLint) amounted to 3.1 ± 0.1 µL/min/1e6 cells. Further, in the data set “in vitro [5]”, the unbound share (fraction unbound) was 0.0003. The compound also gave a logD in “physchem [6]” of 1.52 ± 0.02. The 50% effective concentration (EC50) in the data set with rRVFVΔNSs::Katushka [1] (setting [19]) was determined as 10.1 µM. Besides, the “CLH, u (HLM)” value in data set [7] came to 1.0 L/h. For the same compound, in “in vitro [8]”, the Papp A→B came to 32 ± 3 ×10⁻⁶ cm/s, the Papp B→A came to 31 ± 2 ×10⁻⁶ cm/s and the efflux ratio turned out to be 1. Further, the intrinsic clearance (microsomal CLint) in “in vitro [9]” is 3.9 ± 0.8 µL/min/mg.
By Cmax is commonly meant the highest concentration seen after dosing. Broadly, the Tmax is the time from dosing to the highest level. Broadly, the half-life is how long it takes for the measured level to halve. A higher half-life goes with slow decline. By Vd is commonly meant the apparent volume that relates the amount in the body to the concentration in plasma or blood. A lower Vd goes with little distribution into tissue. What is called clearance is a measure of how efficiently the substance is removed, as volume per time. Higher therefore signals efficient removal. Regarding `O=C(Nc1cc(F)c(F)cc1C(=O)Nc1ccccc1C(=O)O)c1ccccc1F` [Benzavir-2, 2-(4,5-difluoro-2-(2-fluorobenzamido)benzamido)benzoic acid], the CC50 result with A549 cells is listed as “not achieved within these concentrations”. The figures for the solubility in the data set “physchem [2]” and in “physchem [15]” were 130 ± 10 µM (≈ 53.9 µg/mL) and > 150 µM, respectively. Also, in data set [10], the “CLH, u (MLM)” value came to 0.15 L/h. Further, the intrinsic clearance (microsomal CLint) in “in vitro [11]” is 3.8 ± 0.9 µL/min/mg; in the data set “in vitro [9]” it was 3.8 ± 0.4 µL/min/mg. Besides, the “CLH, u (HHep)” value in data set [3] was determined as 4.0 L/h. Also, the fraction unbound was determined as 0.0076 ± 0.0002 in “in vitro [12]” and 0.0004 ± 0.0002 in the data set “in vitro [5]”. The compound also registered a hepatocyte CLint in “in vitro [4]” of 4.1 ± 0.4 µL/min/1e6 cells. For the same compound, the Fapp is 43 ± 15% in data set [13] (ip, 2 mg/kg); 120 ± 40% in data set [13] (ip, 10 mg/kg); 14 ± 5% in data set [13] (po, 2 mg/kg); 54 ± 18% in data set [13] (po, 10 mg/kg). In addition, the “iv CL relative to unbound in vitro metabolic CL” value in data set [13] (iv) is reported as 2–4 times higher. Also, in the data set with RVFV virions, the “inhibition of binding or uptake of RVFV virions” value is “No inhibition of binding or uptake of RVFV virions”. Also, the “weight loss or negative behavioural signs” value in data set [14] is on record as “No weight loss or negative behavioural signs were observed”. Further, the pH-dependent lipophilicity (logD) in “physchem [6]” was 1.56 ± 0.01. Besides, the concentration for a half-maximal effect (EC50) in the data set on rRVFVΔNSs::Katushka [1] (setting [19]) is 0.6 µM; in the data set with rRVFVΔNSs::Katushka [16], 1.7 µM; with rRVFVΔNSs::Katushka [17] (Rift Valley fever virus, A549, 16 h, read-out: EC50, inhibition of production of progeny infectious virus), 0.6 µM. Further, the maximum concentration (Cmax) in “in vivo” (ip, 2 mg/kg) is 2.3 µM; in “in vivo” (ip, 10 mg/kg), 28 µM; in “in vivo” (iv, 1 mg/kg) it was 7.8 µM; in “in vivo” (iv, 2 mg/kg) it was 7.8 µM; in the data set “in vivo” (iv, 4 mg/kg), 20 µM; in “in vivo” (po, 2 mg/kg) it was 0.4 µM. The concentration in the data set “in vivo” (po, 10 mg/kg) peaked (Cmax) at 13 µM. For the same compound, the time to peak (Tmax) in “in vivo” (ip, 2 mg/kg) is 15 min; in the data set “in vivo” (ip, 10 mg/kg), 15 min; in the data set “in vivo” (po, 2 mg/kg), 30 min; in the data set “in vivo” (po, 10 mg/kg) it was 30 min. The half-life in “in vivo” (ip, 2 mg/kg) is 84 ± 12 min; in the data set “in vivo” (ip, 10 mg/kg) it was 96 ± 12 min; in the data set “in vivo” (iv, 1 mg/kg), 42 ± 12 min; in “in vivo” (iv, 2 mg/kg), 42 ± 6 min; in “in vivo” (iv, 4 mg/kg) it was 42 ± 6 min; in the data set “in vivo” (po, 2 mg/kg), 180 ± 36 min. The compound also showed a half-life in “in vivo” (po, 10 mg/kg) of 180 ± 60 min. The Vd in “in vivo” (iv, 1 mg/kg) is 29 ± 7 L/kg; in “in vivo” (iv, 2 mg/kg) it was 20 ± 2 L/kg; in the data set “in vivo” (iv, 4 mg/kg), 35 ± 7 L/kg. Further, the clearance in the data set “in vivo” (iv, 1 mg/kg) was 9.33 mL/min; in the data set “in vivo” (iv, 2 mg/kg), 6.17 mL/min; in the data set “in vivo” (iv, 4 mg/kg), 11.3 mL/min. The “CLH, u (HLM)” value in data set [7] was determined as 1.4 L/h. Further, in “in vitro [8]”, the Papp A→B was 55 ± 4 ×10⁻⁶ cm/s. This compound had a Papp B→A in the data set “in vitro [8]” of 45 ± 3 ×10⁻⁶ cm/s. Besides, the efflux ratio in “in vitro [8]” was determined as 0.8. The “inhibition of release of viable progeny particles to the supernatant” value in the data set with rRVFVΔNSs::Katushka [17] (1.25 μM) is listed as > 95%. The “inhibitory effect by time of addition” value in the data set with rRVFVΔNSs::Katushka [18] is listed as “the inhibitory effect on the formation of the fluorescent cell foci was the greatest”.

The values above are taken from article PMC5792431 (Scientific Reports, 2018).
